# Experimental data published in patent publication US20090232735A1, “USE OF FRUCTOSE-BASED THERAPIES FOR THE TREATMENT OF CANCER” (CEDARS-SINAI MEDICAL CENTER, priority 2005, published 2009).
# Legend:
# [1] = system: PANC-1 pancreatic cancer cells; assay: BRDU uptake in PANC-1 cells; type: cell-based, human; conditions: PANC-1, 5.5 mM fructose, 72 h
# Protocol: FIG. 16 depicts BRDU uptake following treatment with glucose or fructose in accordance with an embodiment of the present invention. PANC-1 cells were pre-incubated in 2 mM glucose prior to treatment with 5.5 mM glucose or fructose for 72 h. BRDU (0.01 mg/ml) was added to the medium at 48 h, and BRDU-uptake quantified at 72 h.
# As a further measure of PANC-1 proliferative rates, the inventors compared bromodeoxyuridine (BRDU) uptake following PANC-1 cell treatment as before with 2 mM, and 5.5 mM glucose, or 5.5 mM fructose for 72 h. In the final 12 h, 10 μM BRDU was added to the glucose-, and fructose-treated cells, after which BRDU-positive cells were counted. […] A further question the inventors sought to address was would the fructose-induced pancreatic cancer proliferative rates be maintained if the PANC-1 cells were also exposed to, and able to utilize their customary culture glucose concentrations. Therefore, the inventors cultured PANC-1 cells for 72 h in a range of glucose concentrations (0-15 mM) admixed with a range of fructose concentrations (0-15 mM).
# [2] = system: pancreatic cancer development; conditions: cited from earlier work
# normal pancreas cells = assay: Proliferation of normal pancreas cells (BRDU-uptake, MTS); type: cell-based, human; conditions: 72 h
# Protocol: FIG. 20 depicts a degree of increased proliferation of normal pancreatic cells in accordance with an embodiment of the present invention. Freshly resected normal pancreas tissues were mechanically and enzymatically dispersed, and cells were pre-incubated in 2 mM glucose prior to treatment with 5.5 mM glucose or fructose for 72 h. BRDU (10 μM) was added to the medium at 60 h, and BRDU-uptake quantified at 72 h.
# In the course of obtaining fresh surgically resected pancreatic cancer tissue, the inventors also obtained some peripherally adjacent “normal” pancreatic tissue and normal tissue from a patient undergoing pancreas resection for complications of chronic pancreatitis. The inventors studied 5 of these “normal” pancreas tissues, and although caveats may exist given that they were derived from pancreases which were involved with another disease entity, the inventors believe they offer a useful comparator for the tumors. […] As before, BRDU (10 µM) was added, after which BRDU-uptake was quantified. In parallel experiments, when sufficient normal pancreatic issue was available, proliferative rates following 72 h incubation in the sugars were also measured using the MTS proliferation assay. […]
# [3] = system: PANC-1 pancreatic cancer cells; assay: [1,2-13C2] stable isotope metabolic profiling in PANC-1 cells; type: cell-based, human
# Protocol: FIG. 28 depicts the metabolism of fructose and glucose in pancreatic cancer cells in accordance with an embodiment of the present invention. Lactate generation from glycolysis (a), and hexose oxidation in the pentose and tricarboxylic acid cycles (b) following treatment of PANC-1 cells with 2 mM glucose, 5.5 mM glucose, and 5.5 mM fructose for 72 h. […] In (b), the ^13C to ^12C ratio in the CO2 released from the PANC-1 cells is presented.
# FIG. 29 depicts fatty acid synthesis from glucose versus fructose in accordance with an embodiment of the present invention. Fatty acid synthesis represented by (a), ^13C-labelled oleate, (b) ^13C-labelled arachidic acid, and (c) ^13C-labelled 24-carbon fatty acid fraction following treatment of PANC-1 cells with 2 mM, and 5.5 mM glucose, and 5.5 mM fructose for 72 h. For the fatty acids, the fraction of ^13C-labeled oleate, arachidic acid or 24-carbon fatty acid is expressed as percentage of total oleate, arachidic acid or 24-carbon fatty acids, respectively.
# FIG. 30 depicts ribose and deoxyribose synthesis following glucose and fructose treatment in accordance with an embodiment of the present invention.
# Metabolism comprises anabolic (converting small molecules into big ones) and catabolic processes (converting food into useful energy), predicts the functional state of a cell, and analyzes the levels of the end products (metabolites) of anabolism and catabolism. […] The inventors employed [1, 2-^13C2] glucose, or [1,2-^13C2] fructose stable isotope-based dynamic metabolic profiling (SiDMAP, Los Angeles, US) to track and quantify changes in glucose, and fructose carbon re-distribution among major metabolic pathways in pancreatic cancer cells (Lee W N, Boros L G, Puigjaner J, Bassilian S, Lim S, Cascante M. Mass istopomer study of transketolase-transaldolase pathways of the pentose cycle with [1,2-^13C2]glucose. Am J Physiol 274:E843-51, 1998; Lee W N, Byerley L O, Bassilian S, Ajie H O, Clark I, Edmond J. Isotopomer study of lipogenesis in human hepatoma cells in culture: contribution of carbon and hydrogen atoms from glucose. […]
structure (smiles),measurement,setting,value
O=C(CO)[C@@H](O)[C@H](O)[C@H](O)CO [fructose],BRDU-uptake higher than with 5.5 mM glucose,[1],~75%
same,relative risk of pancreatic cancer,"[2]; high fructose intake, women with increased BMI (>25) or sedentary lifestyle",3.17
same,increased risk of pancreatic cancer development,[2]; women reporting a high fructose-intake,57%
same,"proliferative rates, 5.5 mM glucose vs 5.5 mM fructose",normal pancreas cells,did not differ significantly
same,pentose phosphate shunt pathway used (oxidative G6PDH vs non-oxidative TKK),"[3]; PANC-1, 5.5 mM sugar, 72 h",preferentially metabolized by TKK
same,lactate and CO2 production lower for fructose in comparison to glucose,"[3]; PANC-1, 13C-labeled sugar, 72 h",3-4 fold
same,13C-labeled sugar metabolized for fatty acid synthesis,"[3]; PANC-1, 72 h, fructose compared to glucose",comparatively less
